In US20060045880A1 (priority 2004, published 2006):

Tests used:
APJ transcript = assay: Antisense morpholino loss-of-function in frog embryos (APJ); type: in vivo, Xenopus laevis
Procedure: One antisense morpholino oligonucleotide, designed to block translation from both copies of the APJ transcript, was targeted immediately upstream of the initiation ATG: apj 5′-[…]-3′ (SEQ ID NO:9).
The 5 base pair mismatch control sequence for the apj morpholino oligonucleotide (apjmm) is: apjmm 5′-AAGcCTcTGTGcAAcCAATAcAAAG-3′ (SEQ ID NO:10); the mismatch bases indicated in lowercase.
(§1) Morpholino oligonucleotides were reconstituted in 50 mM HEPES buffer (pH 8.0) and injected into the frog embryo. The ap1 MO was injected at 15 ng per embryo, and the ap2 and apj MOs were injected at 7.5 ng. Mismatch controls, ap2 mm and apjmm, were used at twice the experimental dose (15 ng). The MOs were injected into one cell of a 2 cell embryo together with Texas Red Dextran (10 ng; Molecular Probes) as a lineage tracer. Embryos were grown to stage 35 when they were assayed by in situ hybridization using the vascular marker, erg.

apelin transcript = assay: Antisense morpholino loss-of-function in frog embryos (apelin); type: in vivo, Xenopus laevis
Procedure: Loss-of-function experiments were performed using antisense morpholino oligonucleotides (MOs) (Gene Tools, Philomath, Oreg.), and the results are shown in FIG. 9. All morpholino oligonucleotides were designed based on recommendations from Gene Tools.
as §1

apelin expression = assay: Apelin expression in cardiac myocytes under cobalt chloride (hypoxia mimic), PCR; type: cell-based, rat
Procedure: Preliminary experiments were carried out using primary rat cardiomyocyte cells in culture and treatment with cobalt chloride. This procedure is accepted as an equivalent to culturing cells under hypoxic conditions because HIF-1α is a metal responsive transcription protein (Ladoux and Frelin, 1994; Piret et al., 2002; Maxwell and Salnikow, 2004). Fetal rat cardiac myocytes were plated and cultured in DMEM (Invitrogen, Carlsbad, Calif.) supplemented with 10% fetal calf serum and penicillin/streptomyocin at 37° C. After four days of culture, medium was removed, and cells were treated with fresh media containing 150 μM Cobalt Chloride (Piret et al., 2002). […] After 4 hours of culture, cells were harvested, and total RNA was extracted using the Trizol procedure according to the manufacturers recommendations (Invitrogen, Carlsbad, Calif.).
Following PCR, amplification products were fractionated on an agarose gel and visualized using ethidium bromide staining under ultraviolet light (FIG. 12).
The myocytes were grown in the presence of Cobalt chloride (30 μg/ml). A control known to be non-responsive to hypoxic conditions was used (β-actin), as well as two positive controls which are known to be responsive to hypoxic conditions (VEGF and GLUTI).

[1] = test system: mouse endothelial cells (bEnd3); assay: bEnd3 cell proliferation, BrdU incorporation; type: cell-based
Procedure: Similar cellular proliferation assays were performed using mouse endothelial cells (bEnd3) that constitutively express APJ. […] SU1498 was included in proliferation cultures at a 25 μM concentration, and results were assayed using BrdU incorporation.
Proliferation inhibition experiments with the bEnd3 cells also were carried out using FGF (50 ng/ml) or the FGF pathway inhibitor SU5402 (FIG. 19). SU5402 was included in proliferation cultures at a 20 μM concentration, and results were assayed using BrdU incorporation.

BAE/APJ#2 cells [2] = assay: BAE/APJ#2 cell proliferation, BrdU incorporation; type: cell-based, bovine; set-up: effect on VEGF-mediated proliferation: dose or concentration left out as unconfirmed
Procedure: (§2) Bovine aortic endothelial cells (BAE) were cultured in DMEM supplemented with 10% fetal bovine serum (FBS) and penicillin/streptomycin. For generation of stable cell lines expressing APJ, the mouse APJ coding region was cloned into the pcDNA 3.1 vector downstream of the CMV promoter, in frame with a myc epitope at the C-terminal end of the protein, and upstream of the neomycin gene. Bovine aortic endothelial (BAE) cells were transfected with this construction using the Superfect transfection kit (Qiagen) and selected for resistance to G418 (600 μg/ml). Colonies were isolated and screened using RT-PCR for expression of mouse APJ and also by immunocytochemistry for expression of the myc epitope.

BAE/APJ#2 cells [3] = conditions: 10 ng/ml in bottom chamber, 16 hours
Procedure: as §2
Cell migration assays were performed using Transwell cell culture migration chambers (Becton Dickinson) with 8 micron pore size. BAE/APJ#2 cells were plated in serum free conditions in 100 μl at a concentration of 1×10^5 ml in the upper chamber of the migration chamber. Following cell attachment to the membrane, 10 ng/ml of growth factor was added to the bottom chamber, in a total volume of 0.5 ml. […] Cells attached to the membrane in the lower chamber were stained with DAPI, and 3 random fields were counted for each experimental condition.

## 5′-AAGGCTGTGTGGAAGCAATAGAAAG-3′ (all phosphorodiamidate morpholino (PMO)) [antisense morpholino to the APJ receptor]
APJ transcript; 7.5 ng, N=48, stage 35
  embryos with decrease in angiogenic growth of blood vessels: 71 % of the embryos

## 5′-AAGcCTcTGTGcAAcCAATAcAAAG-3′ (antisense AAGCCTCTGTGCAACCAATACAAAG; all phosphorodiamidate morpholino (PMO)) [apjmm]
APJ transcript; mismatch control, 15 ng
  alteration in the vascular growth of the embryos: did not produce a detectable alteration

## 5′-GATTCATGTTTCTTGTGGCTGAGTG-3′ (all phosphorodiamidate morpholino (PMO)) [ap2]
Apelin transcript; 7.5 ng, N=64, stage 35
  embryos with loss of intersomitic vessel formation: 63 % of the embryos

## 5′-GATTgATcTTTgTTGTGcCTcAGTG-3′ (antisense GATTGATCTTTGTTGTGCCTCAGTG; all phosphorodiamidate morpholino (PMO)) [ap2 mm]
Apelin transcript; mismatch control, 15 ng
  alteration in the vascular growth of the embryos: did not produce a detectable alteration

## 5′-GTGCCCAAAGTCTGAGATTCATGTT-3′ (all phosphorodiamidate morpholino (PMO)) [ap1]
Apelin transcript; 15 ng per embryo, N=76, stage 35
  embryos with inhibition of angiogenic growth of embryonic blood vessels: 67 % of the embryos

## [Cl][Co][Cl] [Cobalt Chloride]
Apelin expression; 150 μM Cobalt Chloride, 4 hours, fetal rat cardiac myocytes
  apelin expression (PCR): significantly increased
Apelin expression; Cobalt chloride 30 μg/ml, rat cardiac myocytes
  apelin expression: induced

## CC(C)c1cc(/C=C(\C#N)C(=O)NCCCc2ccccc2)cc(C(C)C)c1O [SU1498]
[1]; bEnd3, SU1498 25 μM, VEGF 50 ng/ml
  effect on VEGF-mediated proliferation: partially inhibits
[1]; bEnd3, SU1498 25 μM, apelin 10 ng/ml
  effect on apelin-mediated proliferation: no significant effect
BAE/APJ#2 cells [2]; SU1498
  effect on VEGF-mediated proliferation: partially inhibits
BAE/APJ#2 cells [2]; SU1498 10 ng/ml
  effect on apelin-mediated proliferation: no significant effect

## Cc1c[nH]c(/C=C2\C(=O)Nc3ccccc32)c1CCC(=O)O [SU5402]
[1]; bEnd3, SU5402 20 μM, FGF 50 ng/ml
  effect on the proliferative effect of FGF: partially inhibited
[1]; bEnd3, SU5402 20 μM, apelin 10 ng/ml
  effect on apelin-stimulated cellular proliferation: did not have a significant effect

## VEGF
BAE/APJ#2 cells [3]
  endothelial cell migration (cells per field): increase in migration
[1]; bEnd3, apelin 10 ng/ml, VEGF 50 ng/ml, FIG. 17 0.1 ng/ml to 1 μg/ml
  cellular proliferation of endothelial cells: proliferate
